The nature of series [1]: Antiproliferative activity against human CML cells. It is filed as functional, cell-based. The following applies: Leukemia cell.
The nature of series [2]: Cmax in chronic myeloid leukemia patient. It is filed as ADME, organism-based. The following applies: human, in vivo.
Series [3] can be described thus: Half life in chronic myeloid leukemia patient. It is filed as ADME, organism-based. Particulars: human, in vivo.

Turning to `Cc1nc(Nc2ncc(C(=O)Nc3c(C)cccc3Cl)s2)cc(N2CCN(CCO)CC2)n1.O` [DASATINIB], the concentration for half-maximal inhibition (IC50) in series [1] amounted to 1 nM. Moreover, the Cmax in series [2] turned out to be 200 nM. The half-life in series [3] is 3 h.
As for `Cc1ccc(NC(=O)c2ccc(CN3CCN(C)CC3)cc2)cc1Nc1nccc(-c2cccnc2)n1` [IMATINIB], the concentration for half-maximal inhibition (IC50) in series [1] was 350 nM. For the same molecule, the Cmax in series [2] came out at 2000 nM.

Values taken from ChEMBL document CHEMBL1212712, “A pulse at the heart of targeted therapy” (Nat Chem Biol, 2009).
